The values below come from ChEMBL document CHEMBL5380833 (J Med Chem, 2023).

Active and inactive are the calls of the source. The rule behind the calls is not given here.

Data set [1] concerns the target T1, Protein cereblon/Tyrosine-protein kinase ITK/TSK (Homo sapiens, UniProt Q08881+Q96SW2). The experiment in a line: PROTAC activity at CRBN/ITK in human Jurkat cells assessed as maximum degradation at 0.01 to 10 uM by Western blot analysis relative to control. Type of data set: cell-based. Conditions: dose 0.01-10 µM.
In data set [2] the target is T1, Protein cereblon/Tyrosine-protein kinase ITK/TSK. The data set can be described thus: PROTAC activity at CRBN/ITK in human Jurkat cells assessed as reduction in ITK protein at 100 nM measured within 4 hrs. It is filed as cell-based.
For data set [3] the target is unchanged. The data set can be described thus: PROTAC activity at CRBN/ITK in human Jurkat cells assessed as induction of ITK degradation at 100 nM pretreated with 5-amino-2-(2,6-dioxopiperidin-3-yl)isoindoline-1,3-dione for 1 hr followed by compound addition and measured after 2 hrs by Western blot analysis. It is filed as cell-based.
Data set [4] shares this target. The data set can be described thus: PROTAC activity at CRBN/ITK in human Jurkat cells assessed as induction of ITK degradation at 100 nM measured after 2 hrs by Western blot analysis. It is filed as cell-based.
Data set [5] deals with Tyrosine-protein kinase Lck (Homo sapiens) (UniProt P06239). The experiment in a line: Induction of degradation of LCK in human Jurkat cells at 0.01 to 10 uM by immunoblotting analysis. Type of data set: cell-based. The settings on record: dose 0.01-10 µM.
Chain of Tyrosine-protein kinase Lck (Homo sapiens) (P06239 2-509 limits assumed): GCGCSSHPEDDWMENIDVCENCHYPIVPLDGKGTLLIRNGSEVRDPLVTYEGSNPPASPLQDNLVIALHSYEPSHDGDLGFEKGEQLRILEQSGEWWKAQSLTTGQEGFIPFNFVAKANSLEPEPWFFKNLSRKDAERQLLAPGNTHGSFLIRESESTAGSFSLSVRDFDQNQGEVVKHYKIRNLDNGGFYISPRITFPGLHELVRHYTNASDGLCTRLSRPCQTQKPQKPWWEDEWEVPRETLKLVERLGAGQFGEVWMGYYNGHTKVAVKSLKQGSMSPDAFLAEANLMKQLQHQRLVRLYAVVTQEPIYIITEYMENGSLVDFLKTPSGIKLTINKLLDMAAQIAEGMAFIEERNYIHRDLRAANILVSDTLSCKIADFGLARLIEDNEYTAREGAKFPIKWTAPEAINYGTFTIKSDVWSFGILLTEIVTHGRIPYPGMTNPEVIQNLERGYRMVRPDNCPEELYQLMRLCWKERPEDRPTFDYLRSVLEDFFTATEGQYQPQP
In data set [6] the target is T2, Cytoplasmic tyrosine-protein kinase BMX (Homo sapiens) (UniProt P51813).
T2 sequence (whole entry): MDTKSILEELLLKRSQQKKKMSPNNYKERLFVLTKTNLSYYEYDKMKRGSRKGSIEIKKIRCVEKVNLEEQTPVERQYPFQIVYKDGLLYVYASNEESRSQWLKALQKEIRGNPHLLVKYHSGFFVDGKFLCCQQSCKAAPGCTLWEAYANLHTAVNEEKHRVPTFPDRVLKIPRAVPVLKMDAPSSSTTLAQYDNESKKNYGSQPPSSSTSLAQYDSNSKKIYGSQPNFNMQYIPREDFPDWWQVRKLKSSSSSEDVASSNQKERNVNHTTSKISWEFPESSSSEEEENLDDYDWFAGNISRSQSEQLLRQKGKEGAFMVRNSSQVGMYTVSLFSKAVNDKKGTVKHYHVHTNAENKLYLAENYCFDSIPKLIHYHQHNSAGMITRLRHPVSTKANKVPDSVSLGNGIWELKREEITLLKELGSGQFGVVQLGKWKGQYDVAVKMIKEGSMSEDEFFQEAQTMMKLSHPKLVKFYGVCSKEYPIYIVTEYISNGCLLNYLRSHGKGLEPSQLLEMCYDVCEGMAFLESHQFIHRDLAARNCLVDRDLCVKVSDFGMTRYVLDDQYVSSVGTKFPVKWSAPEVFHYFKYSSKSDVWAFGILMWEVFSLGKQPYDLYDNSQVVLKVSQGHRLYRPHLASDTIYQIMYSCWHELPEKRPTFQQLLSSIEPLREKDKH
The data set can be described thus: Induction of degradation of BMX in human Jurkat cells at 0.01 to 10 uM by immunoblotting analysis. Conditions: dose 0.01-10 µM. Type of data set: cell-based.

Data set [7] concerns the target Tyrosine-protein kinase Yes (Homo sapiens) (UniProt P07947). The experiment in a line: Induction of degradation of YES in human Ramos cells at 0.01 to 10 uM by immunoblotting analysis. Type of data set: cell-based. Conditions: dose 0.01-10 µM.
Data set [8] concerns Jurkat. The data set can be described thus: Induction of degradation of RSK in human Jurkat cells at 0.01 to 10 uM by immunoblotting analysis. Type of data set: cell-based. The settings on record: dose 0.01-10 µM.
The target of data set [9] is T1, Protein cereblon/Tyrosine-protein kinase ITK/TSK. The data set can be described thus: PROTAC activity at CRBN/ITK in human Jurkat cells assessed as […] ITK degradation at 300 nM incubated for 8 hrs by tandem mass tag quantitative proteomic analysis. Type of data set: cell-based.
Data set [10] deals with Jurkat. The experiment in a line: Inhibition of TCR signalling in human Jurkat cells assessed as reduction in PLCgamma1 phosphorylation preincubated with cells for 12 hrs followed by anti-CD-2 antibody stimulation for 5 mins by Western blot analysis. It is filed as cell-based. The settings on record: dose 0.01-3 µM.
Data set [11] is described as follows: AUC (0 to t) in Balb/c mouse at 5 mg/kg, iv measured upto 24 hrs by LC-MS/MS analysis. Type of data set: ADME, organism-based. Set-up: dose 5 mg/kg, time < 24 hrs, route iv. Conditions: in vivo.
The nature of data set [12]: Volume of distribution at steady state in Balb/c mouse at 5 mg/kg, iv measured upto 24 hrs by LC-MS/MS analysis. Type of data set: ADME, organism-based. The settings on record: in vivo, read-out: Vdss.
Data set [13] can be described thus: Clearance in Balb/c mouse at 10 mg/kg, ip measured upto 24 hrs by LC-MS/MS analysis. Type of data set: ADME, organism-based. Conditions: in vivo.
A short description of data set [14]: Cmax in Balb/c mouse at 5 mg/kg, iv measured upto 24 hrs by LC-MS/MS analysis. It is filed as ADME, organism-based. The settings on record: in vivo. Set-up: time < 24 hrs, dose 5 mg/kg, route iv.
Data set [15] in a line: Cmax in Balb/c mouse at 10 mg/kg, ip measured upto 24 hrs by LC-MS/MS analysis. Type of data set: ADME, organism-based. Set-up: dose 10 mg/kg, time < 24 hrs, route ip. The settings on record: in vivo.
Data set [16] in a line: Toxicity in Balb/c mouse assessed as drug tolerance at 5 mg/kg, iv measured upto 24 hrs by LC-MS/MS analysis. It is filed as organism-based. Conditions: in vivo.
Data set [17] concerns the target Tyrosine-protein kinase Tec (Homo sapiens) (UniProt P42680). The data set can be described thus: Induction of degradation of TEC in human Jurkat cells at 0.01 to 10 uM by immunoblotting analysis. Conditions: dose 0.01-10 µM.

T1 sequence (Q08881 whole entry, looked up): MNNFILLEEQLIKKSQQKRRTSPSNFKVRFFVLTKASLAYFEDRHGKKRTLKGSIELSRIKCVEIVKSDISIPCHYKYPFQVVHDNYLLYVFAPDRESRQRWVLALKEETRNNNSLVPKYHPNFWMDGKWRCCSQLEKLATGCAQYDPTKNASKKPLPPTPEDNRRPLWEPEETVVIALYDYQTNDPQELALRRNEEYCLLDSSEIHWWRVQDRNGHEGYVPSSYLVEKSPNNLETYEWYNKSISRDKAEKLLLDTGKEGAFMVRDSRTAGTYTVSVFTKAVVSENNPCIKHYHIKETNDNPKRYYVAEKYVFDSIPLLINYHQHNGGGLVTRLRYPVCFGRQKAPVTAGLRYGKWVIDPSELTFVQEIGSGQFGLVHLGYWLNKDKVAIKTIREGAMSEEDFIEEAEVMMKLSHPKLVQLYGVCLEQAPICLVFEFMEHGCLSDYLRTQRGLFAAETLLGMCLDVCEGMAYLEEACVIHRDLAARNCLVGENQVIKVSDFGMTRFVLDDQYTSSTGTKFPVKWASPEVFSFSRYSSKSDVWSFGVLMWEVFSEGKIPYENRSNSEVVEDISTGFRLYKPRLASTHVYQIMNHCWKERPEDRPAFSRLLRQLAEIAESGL
T1 sequence (Q96SW2 whole entry, looked up): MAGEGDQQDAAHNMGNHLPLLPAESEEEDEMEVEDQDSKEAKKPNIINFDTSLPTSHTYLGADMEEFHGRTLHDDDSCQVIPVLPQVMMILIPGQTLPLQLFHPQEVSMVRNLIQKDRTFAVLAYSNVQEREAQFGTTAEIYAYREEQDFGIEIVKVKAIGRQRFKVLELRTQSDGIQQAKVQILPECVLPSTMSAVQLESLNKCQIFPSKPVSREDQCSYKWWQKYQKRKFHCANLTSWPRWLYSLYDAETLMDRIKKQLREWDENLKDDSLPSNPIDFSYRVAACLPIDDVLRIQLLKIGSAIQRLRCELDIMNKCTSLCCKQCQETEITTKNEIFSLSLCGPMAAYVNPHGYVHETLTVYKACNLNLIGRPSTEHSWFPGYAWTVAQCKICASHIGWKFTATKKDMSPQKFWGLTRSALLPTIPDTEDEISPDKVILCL
Chain of Tyrosine-protein kinase Yes (Homo sapiens) (P07947 2-543 limits assumed): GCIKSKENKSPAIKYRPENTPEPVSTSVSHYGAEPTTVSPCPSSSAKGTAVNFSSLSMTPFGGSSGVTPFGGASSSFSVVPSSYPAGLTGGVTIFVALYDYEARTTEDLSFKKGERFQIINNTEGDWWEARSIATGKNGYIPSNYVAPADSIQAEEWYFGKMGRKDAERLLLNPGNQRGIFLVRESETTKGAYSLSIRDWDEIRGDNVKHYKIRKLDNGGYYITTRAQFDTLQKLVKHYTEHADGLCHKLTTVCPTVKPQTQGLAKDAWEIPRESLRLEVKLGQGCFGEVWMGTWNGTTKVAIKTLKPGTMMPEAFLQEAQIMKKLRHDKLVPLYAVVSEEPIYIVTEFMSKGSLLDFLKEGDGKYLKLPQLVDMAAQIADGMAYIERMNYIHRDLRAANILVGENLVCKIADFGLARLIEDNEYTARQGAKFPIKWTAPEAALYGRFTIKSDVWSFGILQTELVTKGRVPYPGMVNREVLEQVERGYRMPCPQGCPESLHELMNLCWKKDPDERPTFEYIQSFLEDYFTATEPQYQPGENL
Chain of Tyrosine-protein kinase Tec (Homo sapiens) (P42680 whole entry, looked up): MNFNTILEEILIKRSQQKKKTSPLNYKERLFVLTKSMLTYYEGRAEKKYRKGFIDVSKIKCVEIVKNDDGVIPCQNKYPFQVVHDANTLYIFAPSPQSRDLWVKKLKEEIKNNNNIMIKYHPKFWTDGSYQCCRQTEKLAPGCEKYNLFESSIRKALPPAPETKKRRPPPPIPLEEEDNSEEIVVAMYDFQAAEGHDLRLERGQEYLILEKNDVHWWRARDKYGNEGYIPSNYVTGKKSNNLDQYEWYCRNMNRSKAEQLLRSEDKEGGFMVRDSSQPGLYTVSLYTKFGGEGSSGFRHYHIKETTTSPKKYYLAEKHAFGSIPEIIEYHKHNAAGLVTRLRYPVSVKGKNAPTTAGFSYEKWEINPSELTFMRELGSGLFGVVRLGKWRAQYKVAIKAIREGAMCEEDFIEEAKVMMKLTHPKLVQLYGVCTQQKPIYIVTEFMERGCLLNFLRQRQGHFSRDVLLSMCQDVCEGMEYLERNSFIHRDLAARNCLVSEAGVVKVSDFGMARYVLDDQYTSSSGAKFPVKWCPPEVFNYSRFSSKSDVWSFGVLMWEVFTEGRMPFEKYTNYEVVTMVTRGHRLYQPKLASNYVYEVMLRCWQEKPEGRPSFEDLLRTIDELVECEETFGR

Regarding `CN(CCCCCC(=O)Nc1ccc2c(c1)C(=O)N(C1CCC(=O)NC1=O)C2=O)CC[C@@H](c1ccccc1)n1cc(NC(=O)c2n[nH]c3c2CCC(C)(C)C3)cn1.O=C(O)C(F)(F)F` (some centres not stated), the Emax in [1] worked out at 99%. For the same molecule, the result in [2], in data set [4] and in [9] was Active. Further, the outcome (in data set [3]; in data set [5]; in data set [6]; in data set [7]; in the data set on Jurkat [8]; in data set [17]) was inactive. Also, the inhibition result in the data set on Jurkat [10] is “Dose-Dependent Effect”. In addition, the AUC(0-t) at 24 h in [11] was found to be 1080 ng·h/mL. In data set [12], the Vd amounted to 12.9 L/kg. In data set [13], this molecule returned a CL/F of 109 mL/min/kg. Further, the values for the Cmax in data set [14] and in [15] were 3320 ng/mL and 1240 ng/mL, respectively. For the same molecule, the Activity result in data set [16] is recorded as “Non-Toxic”.
